Data taken from PMC9643456, “Matching amino acids membrane preference profile to improve activity of antimicrobial peptides” (Communications Biology, 2022).
In brackets after ≈: the same amount, converted by molar mass. Ends that are not written are not given here.

Key:
[1] = tested on: S. aureus KCTC 1621; assay: microbe, parasite or virus in culture; format: cell-based; conditions: Staphylococcus aureus, KCTC1621, read-out: MIC at resistance induction condition, S. aureus KCTC 1621
Protocol: (§1) To assess antimicrobial activity, the MIC50 and MIC90 were measured using broth microdilution following CLSI guidelines. […] Each experiment was performed in triplicate. Meropenem (Sigma, Darmstadt, Germany) and colistin were used as control antibiotics. Cation-adjusted Mueller–Hinton broth (CAMHB) (Becton, Dickinson and Company, Franklin Lakes, USA) with supplied calcium (50 mg/L) and magnesium (10 mg/L) was used for the CLSI-test condition. Bacteria in midlog phase and peptides were separately diluted in CAMHB. The bacteria and peptide solutions were then mixed in 96-well polyethylene plates (SPL, Gyeonggi-do, Korea) and incubated for 18 h at 37 °C. The final concentration for bacteria was 5 × 10^5 CFU/ml. […] The MIC was defined to be the lowest concentration of peptide without visible turbidity by comparing with control antibiotics with the unaided eye. […] Each experiment was performed in triplicate. MICs in albumin and acetic acid solutions were measured using the same protocol but with 0.2% bovine serum albumin (Bovogen, Keilor, Australia), 0.01% acetic acid (Merck, New Jersey, USA), and CAMHB with both calcium and magnesium. In addition, MICs used in the antibiotic resistance acquisition test, the outer–inner membrane permeation test, and the transmembrane potential test and for FE-SEM were individually determined. The final bacterial concentrations used were as follows: for resistance acquisition, optical density (OD) 0.01; for outer–inner membrane permeability assays (LB), OD 0.1; for the transmembrane potential test, 1 × 10^8 CFU/ml (OD 0.171); […]. Inhibitory activity unidentifiable by direct observation was determined by counting the CFUs. Each experiment was performed at least twice.
A. baumannii (KCCM 40203) and S. aureus (KCTC 1621) were selected as drug-sensitive bacteria. […] The MIC for each antibiotic against bacteria (at OD 0.01) was measured. […]

[2] = tested on: A. baumannii KCCM 40203; assay: microbe, parasite or virus in culture; conditions: Acinetobacter baumannii, KCCM40203, read-out: MIC at resistance induction condition, A. baumannii KCCM 40203
Protocol: as §1
A. baumannii (KCCM 40203) and S. aureus (KCTC 1621) were selected as drug-sensitive bacteria. Mutation-susceptible tetracycline (an antibiotic that targets ribosomes) (Sigma, Darmstadt, Germany) and ofloxacin (an antibiotic that targets DNA gyrase) (Sigma, Darmstadt, Germany), mutation-resistant colistin (an antibiotic that targets lipopolysaccharide) (Sigma, Darmstadt, Germany) and vancomycin (an antibiotic that targets peptidoglycan pentapeptide) (Sigma, Darmstadt, Germany) were used as control antibiotics. The MIC for each antibiotic against bacteria (at OD 0.01) was measured. […] The MIC for each passage was confirmed by additional broth microdilutions under CLSI guidelines. Resistance acquisition was induced for 30 days (30 passages), and each MIC value was confirmed by an independent MIC test against bacteria at each passage.

[3] = tested on: P. aeruginosa; parameters: method as in 7 sources, one per row (each row's own in cited_ref): ref 39 (a number printed in a supplementary file, which may have a reference list of its own: not looked up in the article's list) ||| ref 40 (a number printed in a supplementary file, which may have a reference list of its own: not looked up in the article's list) ||| ref 41 (a number printed in a supplementary file, which may have a reference list of its own: not looked up in the article's list) ||| ref 42 (a number printed in a supplementary file, which may have a reference list of its own: not looked up in the article's list) ||| ref 44 (a number printed in a supplementary file, which may have a reference list of its own: not looked up in the article's list) ||| ...; conditions: 1 × 10^5 ~ 3.5 × 10^5 cfu/ml, MHB; cited from earlier work
[4] = tested on: S. aureus; parameters: method as in 7 sources, one per row (each row's own in cited_ref): ref 39 (a number printed in a supplementary file, which may have a reference list of its own: not looked up in the article's list) ||| ref 40 (a number printed in a supplementary file, which may have a reference list of its own: not looked up in the article's list) ||| ref 41 (a number printed in a supplementary file, which may have a reference list of its own: not looked up in the article's list) ||| ref 42 (a number printed in a supplementary file, which may have a reference list of its own: not looked up in the article's list) ||| ref 43 (a number printed in a supplementary file, which may have a reference list of its own: not looked up in the article's list) ||| ...; conditions: 1 × 10^5 ~ 3.5 × 10^5 cfu/ml, MHB; cited from earlier work
[5] = tested on: MDR A. baumannii; assay: microbe, parasite or virus in culture; conditions: Acinetobacter baumannii, ATCCBAA1605, 18 h, read-out: Minimum inhibitory concentrations, MDR A. baumannii
Method in brief: (§2)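 Broth microdilution per CLSI in cation-adjusted Mueller–Hinton broth with added calcium (50 mg/L) and magnesium (10 mg/L); mid-log bacteria at a final 5 × 10^5 CFU/ml were incubated with peptide for 18 h at 37 °C. MIC was the lowest concentration without visible turbidity, in triplicate.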

[6] = tested on: MDR E. faecalis; assay: microbe, parasite or virus in culture; conditions: Enterococcus faecalis, ATCC51575, 18 h, read-out: Minimum inhibitory concentrations, MDR E. faecalis
Method in brief: as §2

[7] = tested on: MDR S. aureus; assay: microbe, parasite or virus in culture; conditions: Staphylococcus aureus, KCCM40510, 18 h, read-out: Minimum inhibitory concentrations, MDR S. aureus
Method in brief: as §2

[8] = tested on: MDR P. aeruginosa; assay: microbe, parasite or virus in culture; conditions: Pseudomonas aeruginosa, CCARM2180, 18 h, read-out: Minimum inhibitory concentrations, MDR P. aeruginosa
Method in brief: as §2

[9] = tested on: E. aerogenes NCCP 16285; assay: microbe, parasite or virus in culture; conditions: Klebsiella aerogenes, NCCP16285, read-out: MIC, E. aerogenes NCCP 16285
Protocol: as §1

[10] = tested on: K. pneumonia strains; assay: microbe, parasite or virus in culture; conditions: Klebsiella pneumoniae, read-out: MIC, K. pneumonia NCCP 16125
Protocol: Twenty-six A. baumannii strains were clinically isolated and gifted to us by the Kyungpook National University School of Medicine. One A. baumannii strain (ATCC 17978) was purchased and gifted to us by Kyungpook National University School of Medicine. One A. baumannii strain and 10 K. pneumoniae strains (NCCP) were purchased from the National Culture Collection for Pathogens.
as §1

With `CN(C)[C@@H]1C(O)=C(C(N)=O)C(=O)[C@@]2(O)C(O)=C3C(=O)c4c(O)cccc4[C@@](C)(O)[C@H]3C[C@@H]12` [Tetracycline] the MIC [1] was 1.25 µM (≈ 0.556 µg/mL) and the MIC [2] was 1.25 µM (≈ 0.556 µg/mL).

For “RLWWKIWLK (not fully specified (C-terminus))”, the “MIC (Strain 1), P. aeruginosa H103” value [3] is listed as 22.5 µM and the “MIC (Strain 2), S. aureus ATCC 25923” value [4] is listed as 1.4 µM.

For “WKWLKKWIK (not fully specified (C-terminus))”, the “MIC (Strain 1), P. aeruginosa H103” value [3] is listed as 2.9 µM and the “MIC (Strain 2), S. aureus ATCC 25923” value [4] is listed as 0.7 µM.

For “KFKWWRMLI (not fully specified (C-terminus))”, the “MIC (Strain 1), P. aeruginosa H103” value [3] is given as 2.6 µM and the “MIC (Strain 2), S. aureus ATCC 25923” value [4] is given as 1.2 µM.

For `CN[C@H](CC(C)C)C(=O)N[C@H]1C(=O)N[C@@H](CC(N)=O)C(=O)N[C@H]2C(=O)N[C@H]3C(=O)N[C@H](C(=O)N[C@H](C(=O)O)c4cc(O)cc(O)c4-c4cc3ccc4O)[C@H](O)c3ccc(c(Cl)c3)Oc3cc2cc(c3O[C@@H]2O[C@H](CO)[C@@H](O)[C@H](O)[C@H]2O[C@H]2C[C@](C)(N)[C@H](O)[C@H](C)O2)Oc2ccc(cc2Cl)[C@H]1O` [Vancomycin, reference compound], the MIC [5] was > 5 µM, the MIC [6] was > 20 µM and the MIC [7] was 1.25 µM (≈ 1.81 µg/mL). The MIC [8] was > 5 µM, the MIC [9] was > 5 µM and the MIC [1] was 1.25 µM (≈ 1.81 µg/mL). The MIC [10] was > 5 µM and the MIC [2] was 1.25 µM (≈ 1.81 µg/mL).

With `CC1COc2c(N3CCN(C)CC3)c(F)cc3c(=O)c(C(=O)O)cn1c23` (centres unmarked) [Ofloxacin] the MIC [1] was 1.25 µM (≈ 0.452 µg/mL) and the MIC [2] was 1.25 µM (≈ 0.452 µg/mL).

In the case of “KRRWRIWLV (not fully specified (C-terminus))”, the “MIC (Strain 1), P. aeruginosa H103” value [3] is listed as 3.0 µM and the “MIC (Strain 2), S. aureus ATCC 25923” value [4] is listed as 1.5 µM.
